From patent US20150045407A1, “MTK1-ACTIN INHIBITORS AND METHODS OF USE” (THE ARIZONA BOARD OF REGENTS ON BEHALF OF THE UNIVERSITY OF …, priority 2013, published 2015)
Entries after “also recorded” stand apart in the source; their conditions may differ.

Key:
MCF-7 cells [1] = test: HRG-induced extracellular acidification, media pH measurement; assay type: cell-based, human
Protocol: (§1) MCF-7 and T-47D cells were seeded in complete growth media at a density of 0.4×10^6 cells per well in 12-well plates (VWR #62406-165) for proliferation assays and 0.7×10^6 cells per well for pH measurements. Cells were allowed to adhere for 16 hours, followed by 4 hour serum starvation in DMEM, 1% penicillin-streptomycin without fetal bovine serum. […] Each condition was performed in triplicate and repeated a minimum of 3 times. After 24 hours, the cells were counted using a TC-10 Bio-Rad automated cell counter and the media pH was recorded using a pH meter probe. Data shown for each condition represents n=3. A two sided student t-test with standard deviation were used to perform statistical analyses on proliferation rates and media pH measurements. Statistical significance was determined by a p-value ≦0.05.
(§2) MCF-7 cells were seeded (onto 10 cm cell culture plates, VWR #353003) at a density of 5.0×10^6 cells and allowed to adhere for 16 hours. […] The cells were counted and seeded onto 12 well plates (VWR #62406-165) at a density of 0.7×10^6 cells per well for pH measurements and scratch assays or at density of 0.4×10^6 cells per well for proliferation assays. MTK1 knockdown efficiency was determined by immunoblot analysis using 150 μg whole cell lysate at 120 hours post-secondary transfection. […]

MCF-7 cells [2] = test: Cell proliferation and viability (automated cell count, trypan blue); assay type: cell-based, human; conditions: 10 nM HRG or 3.3 nM EGF, 24 hours
Protocol: as §1, §2

MCF-7 cells [3] = test: Scratch assay, HRG-induced cell migration; assay type: cell-based, human; conditions: 250 nM lapatinib pre-treatment, 10 nM HRG
Protocol: MCF-7 cells were seeded (onto 10 cm cell culture plates, VWR #353003) at a density of 5.0×10^6 cells and allowed to adhere for 16 hours. The cells were then transfected with 434 pmol of siRNA specific for MTK1 (Thermo Scientific ON-TARGETplus SMARTpool, Human MAP3K4 (4216) Cat #L-003789-00-0005) or non-targeting (NS) (ON-TARGETplus Non-targeting Pool Cat #D-001810-10-05) as control using lipofectamine 2000 according to manufacture recommendations. The cells were transfected with siRNA a second time 24 hours later using lipofectamine 2000 to enhance knockdown efficiency. Twenty-four hours after the second transfection the cells were detached using 0.25% trypsin (Invitrogen #15050-065). The cells were counted and seeded onto 12 well plates (VWR #62406-165) at a density of 0.7×10^6 cells per well for pH measurements and scratch assays or at density of 0.4×10^6 cells per well for proliferation assays. MTK1 knockdown efficiency was determined by immunoblot analysis using 150 μg whole cell lysate at 120 hours post-secondary transfection. Each condition was performed in triplicate and repeated a minimum of 3 times. Data shown for each condition represents n=3. Statistical analysis was performed as described above.
Scratch assays were performed in 12-well plates using MCF-7 cells at a density of 0.7×10^6 cells per well. […]

HER3 = HER3 phosphorylation in HRG-stimulated MCF-7 cell lysates (immunoblot); conditions: for Effect on phosphorylation (activation) of HER3: MCF-7 cell lysates, 1 μg/ml cytochalasin D 30 minutes, then 10 nM HRG 12 minutes
Protocol: (§3) MCF-7 cells were maintained in the same media as T-47D cells and supplemented additionally with 10 μg/ml insulin. Prior to experimental procedures, cells were cultured in DMEM supplemented only with 1% penicillin-streptomycin for 16 hrs. […] Cells were treated with 1 μg/ml Cytochalasin D for 30 minutes prior to addition of HRG.
(§4) Images were obtained using ChemiDoc™ XRS+ (BIO-RAD) and quantification was performed with Image Lab Software. […] All commercial antibodies were used according to manufacturer recommendations.

MTK1/HER3 association = test: HRG-induced MTK1/HER3 association, MTK1 immunoprecipitation and immunoblot in MCF-7 cells; conditions: then 10 nM HRG 12 minutes; for Effect on HRG-induced MTK1/HER3 association: MCF-7 cells pre-treated with 0, 50, 100 or 200 nM lapatinib for 1 hour, pTyr immunoblot of MTK1 IP
Protocol: as §3, §4
The cells were then washed twice with ice-cold 1× phosphate buffered saline pH 7.4. […] Immune complexes recovered using protein A-Sepharose beads (Sigma Cat# P3391) were washed twice with ice-cold lysis buffer and denatured with Laemmli sample buffer.

PI3K = conditions: Smirnova et al., 2012; cited from earlier work

Compound: EGF: growth factor used to stimulate cells at 3.3 nM; activates EGFR and HER2 (NSDSECPLSHDGYCLHDGVCMYIEALDKYACNCVVGYIGERCQYRDLKWWELR; Epidermal growth factor; UniProt P01133 971-1023, looked up)
- Extracellular acidification of cell culture media by stimulation (MCF-7 cells [1]; 10 nM HRG or 3.3 nM EGF, 24 hours, compared to vehicle): no effect; also recorded: did not induce extracellular acidification
- Cell proliferation on stimulation (MCF-7 cells [2]): proliferative response was detected; also recorded: induced cell proliferation

Compound: CS(=O)(=O)CCNCc1ccc(-c2ccc3ncnc(Nc4ccc(OCc5cccc(F)c5)c(Cl)c4)c3c2)o1 [lapatinib]
- Effect on HRG-induced extracellular acidification (MCF-7 cells [1]; 250 nM lapatinib pre-treatment, 10 nM HRG 24 hours, media pH): significantly decreased; also recorded: inhibition of HRG-induced extracellular acidification
- Effect of lapatinib on HRG-induced cell migration (MCF-7 cells [3]): significantly decreased cell migration
- Effect on tyrosine phosphorylation of HER3 in lysates (HER3; MCF-7 cells, lapatinib 50-200 nM pre-treatment 1 hour, 10 nM HRG 12 minutes): effectively inhibited; also recorded: decreased
- Effect on HRG-induced MTK1/HER3 association (MTK1/HER3 association): effectively inhibited; also recorded: attenuates MTK1/HER3 association; also recorded: inhibited association of MTK1 and HER3
- Effect on HRG-induced MTK1/HER3 association (MTK1/HER3 association; listed as Lapatinib): decreased the interaction between HER3 and MTK1 in a dose dependent manner

Compound: C=C1[C@@H](C)[C@H]2[C@H](Cc3ccccc3)NC(=O)[C@]23[C@H](OC(C)=O)/C=C/[C@@](C)(O)C(=O)[C@@H](C)C/C=C/[C@H]3[C@@H]1O [cytochalasin D]
- Effect on phosphorylation (activation) of HER3 (HER3): not affected; also recorded: remained the same
- Effect on phosphorylation (activation) of HER3 (HER3; listed as Cytochalasin D): no effect
- Effect on HRG-induced MTK1/HER3 association (in words) (MTK1/HER3 association; MCF-7 cells, 1 μg/ml cytochalasin D 30 minutes): disrupted the communication or signaling between HER3/ErbB3 and MTK1; also recorded: inhibited HRG induced MTK1/HER3 association; also recorded: inhibited MTK1 and HER3 association
- Effect on HRG-induced MTK1/HER3 association (in words) (MTK1/HER3 association; MCF-7 cells, 1 μg/ml cytochalasin D 30 minutes, listed as Cytochalasin D): diminished interaction between MTK1 and HER3
- Decrease of interaction between HER3 and MTK1 (MTK1/HER3 association; MCF-7 cells, 1 μg/ml cytochalasin D 30 minutes, pY1289 HER3 immunoblot of MTK1 IP): ~60%

Compound: Cc1ccc([N+](=O)[O-])cc1S(=O)(=O)N(C)/N=C/c1cnc2ccc(Br)cn12 [PIK-75]
- Effect on cell motility and invasion (PI3K): inhibits cell motility and invasion
